Holding throughout (assay type): functional, cell-based
The target of test [1] is T1, Cannabinoid receptor 2 (Homo sapiens, UniProt P34972). Kind of test: Agonist activity at human CB2 receptor expressed in CHO cells assessed as inhibition of accumulation of forskolin-stimulated cAMP level by measuring maximum activation incubated for 35 mins by chemiluminescence based assay relative to control. As to conditions: filed as agonist.
For test [2], the target named is T1, Cannabinoid receptor 2. In words: Agonist activity at human CB2 receptor expressed in PathHunter CHO-K1 CNR2 beta-arrestin cells assessed as beta-arrestin recruitment incubated for 3 hrs by plate reader analysis.
The target of test [3] is T1, Cannabinoid receptor 2. In words: Agonist activity at human CB2 receptor expressed in CHO cells assessed as inhibition of accumulation of forskolin-stimulated cAMP level incubated for 35 mins by chemiluminescence based assay.

As a reminder, the Emax is the greatest response seen or fitted, relative to the assay's reference. The term EC50 denotes the concentration at which the effect is half-maximal.

T1 sequence (P34972 whole entry): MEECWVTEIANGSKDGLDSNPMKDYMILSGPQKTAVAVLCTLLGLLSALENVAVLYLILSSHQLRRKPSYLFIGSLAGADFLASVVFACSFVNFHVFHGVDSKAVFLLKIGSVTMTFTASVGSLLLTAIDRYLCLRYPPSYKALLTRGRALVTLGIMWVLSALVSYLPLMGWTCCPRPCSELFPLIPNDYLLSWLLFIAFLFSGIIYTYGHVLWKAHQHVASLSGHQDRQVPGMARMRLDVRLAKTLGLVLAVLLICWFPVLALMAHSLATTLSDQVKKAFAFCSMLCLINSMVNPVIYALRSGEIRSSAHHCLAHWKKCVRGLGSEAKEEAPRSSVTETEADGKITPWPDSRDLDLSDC

Regarding `Cc1nc(N2CCN(C)CC2)c2nc(-c3ccccc3Cl)n(C3CCOCC3)c2n1`, the Emax at Cannabinoid receptor 2 [1] amounted to 52.6%.
Turning to `CC(C)(C)c1cc(NC(=O)N2CCCN2c2ccc(C(F)(F)F)cc2)on1`, the Emax at Cannabinoid receptor 2 [1] amounted to 114%. The concentration for a half-maximal effect (EC50) at Cannabinoid receptor 2 [2] was above 1000 nM.
As for `CC(C)(CO)c1cc(NC(=O)N2CCCN2c2ccc(C(F)(F)F)cc2)on1`, on Cannabinoid receptor 2 [1], the Emax came out at 99.7%. In addition, the concentration for a half-maximal effect (EC50) at Cannabinoid receptor 2 [3] was 42.7 nM; on Cannabinoid receptor 2 [2], 167 nM.

The values above are taken from ChEMBL document CHEMBL5104219, “Pyrazolidine Carboxamide Analogs as Selective Agonists of the Cannabinoid 2 Receptor” (ACS Med Chem Lett, 2022).
